For three compounds, IC50, stability in solution and solubility results are on record in patent US6610824B2 (Amylin Pharmaceuticals, Inc., priority 1991, dated 2003).

Where a SMILES comes first, the peptide text is derived from it.

In one data set the target is T1, amylin receptors (Rattus norvegicus, UniProt P32214).
T1 construct: This basal forebrain tissue, containing the nucleus accumbens and surrounding regions, was weighed and homogenized; from tissue; host or cells: rat basal forebrain (nucleus accumbens and surrounding regions) membranes
T1 sequence (P32214 25-516): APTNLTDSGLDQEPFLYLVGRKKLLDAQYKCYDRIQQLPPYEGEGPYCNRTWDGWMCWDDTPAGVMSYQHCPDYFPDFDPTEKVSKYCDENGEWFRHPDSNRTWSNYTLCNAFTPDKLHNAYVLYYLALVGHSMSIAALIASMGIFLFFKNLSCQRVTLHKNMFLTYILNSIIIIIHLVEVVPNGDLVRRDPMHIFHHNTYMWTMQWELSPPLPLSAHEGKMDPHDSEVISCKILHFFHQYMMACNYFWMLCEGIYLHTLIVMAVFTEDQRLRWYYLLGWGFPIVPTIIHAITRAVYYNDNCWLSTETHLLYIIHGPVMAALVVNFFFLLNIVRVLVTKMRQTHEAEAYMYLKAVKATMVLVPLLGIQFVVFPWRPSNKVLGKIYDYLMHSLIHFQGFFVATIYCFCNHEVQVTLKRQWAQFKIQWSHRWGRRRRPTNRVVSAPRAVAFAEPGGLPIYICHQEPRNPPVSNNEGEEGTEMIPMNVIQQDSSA
T1 sequence (Q9JJ74 27-148 partner): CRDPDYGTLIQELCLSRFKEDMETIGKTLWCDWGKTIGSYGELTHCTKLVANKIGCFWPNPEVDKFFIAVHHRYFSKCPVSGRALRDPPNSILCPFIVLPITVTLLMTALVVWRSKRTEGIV
Description: Receptor binding assay (125I-rat amylin competition, rat basal forebrain membranes). Particulars: competition with 125I-rat amylin at 12-16 pM. An excerpt: Unlabeled peptides were obtained from BACHEM Inc. (Torrance, Calif.) and Peninsula Laboratories (Belmont, Calif.).
Male Sprague-Dawley rats (200-250) grams were sacrificed by decapitation. Brains were removed to cold phosphate-buffered saline (PBS). From the ventral surface, cuts were made rostral to the hypothalamus, bounded laterally by the olfactory tracts and extending at a 45Ε angle medially from these tracts. This basal forebrain tissue, containing the nucleus accumbens and surrounding regions, was weighed and homogenized in ice-cold 20 mM HEPES buffer (20 mM HEPES acid, pH adjusted to 7.4 with NaOH at 23ΕC). […] The final membrane pellet was resuspended in 20 mM HEPES buffer containing 0.2 mM phenylmethylsulfonyl fluoride (PMSF).
Solutions were incubated for 60 minutes at 2ΕC. […] Filters were washed immediately before filtration with 5 ml cold PBS, and immediately after filtration with 15 ml cold PBS.

A short description of a further data set: Stability in solution. The format is physicochemical. The note with it: where a comparison is made, compared with human amylin. An excerpt: (§1) This may be due in some measure, although this is not known, to the different aggregation properties of the amylins from different species.
(§2) The agonist analogues of amylin of this invention are useful in view of their pharmacological properties. […] In addition to the description of compounds pursuant to FIG. 3, certain preferred compounds are set forth in Table I. The preferred compounds des-^1Lys-h-amylin [SEQ. ID. NO. 7], ^28Pro-h-amylin [SEQ. ID. NO. 8], ^25, 28, 29Pro-h-amylin [SEQ. ID. NO. 9], ^18Arg^25, 28Pro-h-amylin [SEQ. ID. NO. 10], and des-^1Lys^18Arg^25, 28Pro-h-amylin [SEQ. ID. NO. […] These preferred compounds include ^25Pro^26Val^28, 29Pro-h-amylin [SEQ. ID. NO. 12], ^25, 28, 29Pro-h-amylin, and ^18Arg^25, 28Pro-h-amylin.

The nature of the next data set: Solubility. In kind it is physicochemical. Particulars: where a comparison is made, compared with human amylin.
Excerpt: as §1, §2

For the compound `CC[C@H](C)[C@H](NC(=O)[C@H](C)NC(=O)CNC(=O)[C@H](Cc1ccccc1)NC(=O)[C@H](CC(N)=O)NC(=O)[C@H](CC(N)=O)NC(=O)[C@H](CO)NC(=O)[C@H](CO)NC(=O)[C@H](Cc1c[nH]cn1)NC(=O)[C@@H](NC(=O)[C@H](CC(C)C)NC(=O)[C@H](Cc1ccccc1)NC(=O)[C@H](CC(N)=O)NC(=O)[C@H](C)NC(=O)[C@H](CC(C)C)NC(=O)[C@H](CCCNC(=N)N)NC(=O)[C@H](CCC(N)=O)NC(=O)[C@@H](NC(=O)[C@H](C)NC(=O)[C@@H]1CCCCNC(=O)C[C@H](NC(=O)[C@@H](N)CCCCN)C(=O)N[C@@H](CC(N)=O)C(=O)N[C@@H]([C@@H](C)O)C(=O)N[C@@H](C)C(=O)N[C@@H]([C@@H](C)O)C(=O)N1)[C@@H](C)O)C(C)C)C(=O)N[C@@H](CC(C)C)C(=O)N[C@@H](CO)C(=O)N[C@@H](CO)C(=O)N[C@H](C(=O)N[C@@H](CC(N)=O)C(=O)N[C@H](C(=O)NCC(=O)N[C@@H](CO)C(=O)N[C@@H](CC(N)=O)C(=O)N[C@H](C(=O)N[C@@H](Cc1ccc(O)cc1)C(N)=O)[C@@H](C)O)C(C)C)[C@@H](C)O` [Example 3, ^2, 7Cyclo-[^2Asp, ^7Lys]-h-Amylin] (HELM PEPTIDE1{K.D.N.T.A.T.K.A.T.Q.R.L.A.N.F.L.V.H.S.S.N.N.F.G.A.I.L.S.S.T.N.V.G.S.N.T.Y.[am]}$PEPTIDE1,PEPTIDE1,2:R3-7:R3$$$V2.0), at amylin receptors, the IC50 – broadly, the concentration that inhibits the measured activity by half – came to 0.31 nM.
`CC[C@H](C)[C@H](NC(=O)[C@H](C)NC(=O)CNC(=O)[C@H](Cc1ccccc1)NC(=O)[C@H](CC(N)=O)NC(=O)[C@H](CC(N)=O)NC(=O)[C@H](CO)NC(=O)[C@H](CO)NC(=O)[C@H](Cc1c[nH]cn1)NC(=O)[C@@H](NC(=O)[C@H](CC(C)C)NC(=O)[C@H](Cc1ccccc1)NC(=O)[C@H](CC(N)=O)NC(=O)[C@H](C)NC(=O)[C@H](CC(C)C)NC(=O)[C@H](CCCNC(=N)N)NC(=O)[C@H](CCC(N)=O)NC(=O)[C@@H](NC(=O)[C@H](C)NC(=O)[C@@H]1CSSC[C@H](NC(=O)[C@@H](N)CCCCN)C(=O)N[C@@H](CC(N)=O)C(=O)N[C@@H]([C@@H](C)O)C(=O)N[C@@H](C)C(=O)N[C@@H]([C@@H](C)O)C(=O)N1)[C@@H](C)O)C(C)C)C(=O)N[C@@H](CC(C)C)C(=O)N[C@@H](CO)C(=O)N[C@@H](CO)C(=O)N[C@H](C(=O)N[C@@H](CC(N)=O)C(=O)N[C@H](C(=O)NCC(=O)N[C@@H](CO)C(=O)N[C@@H](CC(N)=O)C(=O)N[C@H](C(=O)N[C@@H](Cc1ccc(O)cc1)C(N)=O)[C@@H](C)O)C(C)C)[C@@H](C)O` [human amylin]: the stability in solution result in the data set “Stability in solution” is reported as “limited stability”. Moreover, the solubility entry in “Solubility” is reported as “limited solubility”.
Take rat amylin: the stability in solution result in “Stability in solution” is “higher”. In addition, in the data set “Solubility”, the solubility result is “higher”.
